Laboratory results reported in paper PMC12650144, “Interactive Role of the DHPR β1a SH3 Domain in Skeletal Muscle Excitation–Contraction Coupling” (Biomolecules, 2025).
Where no end group is shown, it is not given here.

What was measured:
[1] = biological target: T1, DHPR β1a subunit (full-length, β1a-FL) (Mus musculus, UniProt Q8R3Z5); assay: Tryptophan fluorescence quenching binding to full-length β1a; conditions: excitation 280 nm, emission 340 nm, full-length β1a titrated with loop/peptide, nonlinear regression, read-out: Binding affinity to β1a subunit (Kd)
T1 construct: full-length β1a (β1a-FL); polyhistidine-tagged ubiquitin (N, cleaved yes); made in house; host or cells: Escherichia coli BL21
T1 sequence (Q8R3Z5 1-524 isoform Q8R3Z5-4): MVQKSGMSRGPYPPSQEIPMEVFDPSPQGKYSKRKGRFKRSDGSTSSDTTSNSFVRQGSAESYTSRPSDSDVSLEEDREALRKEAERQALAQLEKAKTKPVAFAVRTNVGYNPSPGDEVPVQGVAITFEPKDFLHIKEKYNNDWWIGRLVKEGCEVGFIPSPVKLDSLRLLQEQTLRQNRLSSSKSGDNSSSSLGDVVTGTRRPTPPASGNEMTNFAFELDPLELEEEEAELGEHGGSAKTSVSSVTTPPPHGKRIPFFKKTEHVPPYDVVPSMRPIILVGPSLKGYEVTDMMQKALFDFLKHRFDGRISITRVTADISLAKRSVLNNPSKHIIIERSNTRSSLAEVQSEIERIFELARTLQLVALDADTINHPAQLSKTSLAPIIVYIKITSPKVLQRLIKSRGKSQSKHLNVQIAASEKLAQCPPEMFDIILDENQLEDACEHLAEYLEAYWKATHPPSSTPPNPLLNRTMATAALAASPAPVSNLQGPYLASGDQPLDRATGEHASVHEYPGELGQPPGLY
Protocol: (§1) The mouse β1a and β2a subunits (NCBI reference sequences—NM_031173 and NM_023116), the β1a-SH3 domain (β1a residues V101-P272), and the α1s II-III loop (NCBI reference sequence—X05921, residues E666-L791) were amplified by PCR. Each PCR product was cloned in-frame downstream of a polyhistidine-tagged ubiquitin sequence in the plasmid pHUE [27]. The plasmids were transferred into Escherichia coli BL21, and expression of fusion protein was induced by addition of 0.1 mM IPTG (isopropyl β-D-1thiogalactoside) to the culture medium. The His-tagged proteins were purified by chromatography on Ni-agarose. Ubiquitin was removed from the N-terminal end of the recombinant proteins by digestion with a His-tagged ubiquitin-dependant protease. The recombinant β-subunit proteins and the II-III loop were further purified by preparative electrophoresis using a Bio-Rad model 491 prep cell. The final samples were dialysed into a buffer containing 50 mM sodium phosphate pH 8 and 300 mM NaCl (buffer A) and stored at −70 °C.
(§2) Equilibrium dissociation constants for β1a and β2a subunit and β1a-SH3 domain binding to the α1s II-III loop and its peptides were determined with a Perkin-Elmer LS 50B6 Spectrofluorimeter. Changes in the intrinsic fluorescence of the tryptophan residues of the β1a subunit or the β1a-SH3 domain was monitored while titrating the α1s II-III loop or its peptides. Excitation was at 280 nm, and fluorescence emission was monitored at 340 nm. Data was corrected for dilution effects and for intrinsic fluorescence of the II-III loop or its peptides and fitted with nonlinear regression using GraphPad Prism software (6.0), as previously described.

[2] = biological target: T2, β1a-SH3 domain (residues 101–272) (Mus musculus, UniProt Q8R3Z5); assay: Tryptophan fluorescence quenching binding to β1a SH3 domain; conditions: excitation 280 nm, emission 340 nm, refolded β1a-SH3, read-out: Binding affinity to β1a–SH3 domain (residues 101–272) (Kd)
T2 construct: The β1a SH3 protein (residues V101-P272) was purified by IMAC; polyhistidine-tagged ubiquitin (N, cleaved yes); made in house; host or cells: Escherichia coli BL21
T2 sequence (Q8R3Z5 101-272 isoform Q8R3Z5-4): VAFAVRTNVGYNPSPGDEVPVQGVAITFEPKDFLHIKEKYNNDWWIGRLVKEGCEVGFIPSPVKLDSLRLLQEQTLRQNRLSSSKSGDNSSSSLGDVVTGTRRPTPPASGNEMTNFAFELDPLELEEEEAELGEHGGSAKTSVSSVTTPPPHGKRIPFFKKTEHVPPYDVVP
Protocol: as §1
The β1a SH3 protein (residues V101-P272) was purified by IMAC (immobilized metal affinity chromatography) under denaturing conditions (6M guanidinium HCl) using Ni-NTA resin. The purity of the protein was assessed by SDS page gels (Supplementary Figure S1). The purified protein was then refolded by dialysing against buffer A, and the folded structure was checked by circular dichroism (Supplementary Figure S2). The purified and refolded protein was stored (−70 °C) at concentrations of ~1μM. It was not possible to directly assess the aggregation state of the β1a SH3 protein construct at 1μM as the SEC UV peak absorbance was below detectable levels.
as §2

[3] = biological target: α1s C (α1s II-III loop C region peptide, residues 720–765); assay: Fluorescence binding of β isoforms and chimeras to α1s C peptide; conditions: β construct titrated with α1s C peptide
Protocol: as §1, with “The recombinant β-subunit proteins and the II-III loop were further purified by preparative electrophoresis using a Bio-Rad model 491 prep cell. The final samples were dialysed into a buffer containing 50 mM sodium phosphate pH 8 and 300 mM NaCl (buffer A) and stored at −70 °C.” left out
as §2

[4] = system: L-type Ca2+ current (DHPR channel) in β-null myotubes; assay: L-type Ca2+ current, whole-cell patch clamp in cultured myotubes; format: cell-based, mouse; conditions: mean ± SE
Protocol: All animal procedures were carried out in accordance with the guidelines of Harvard Medical Area Standing Committee on Animals under experimental protocol number 2589, approved on 01 Sept 2014. Primary myoblasts from DHPRβ1a-null mouse skeletal muscles were isolated from the hindlimb of neonatal mice, as described elsewhere. Stably transduced cell lines were then obtained by infection of primary β-null myoblasts with virion particles carrying the β1a genes at a multiplicity of infection (MOI) of 0.5 and then selected with […] Puromycin for 2 weeks, as described previously. Cells expressing mouse Wtβ1a or β1a-loop chimera subunit were then grown and differentiated in 96-well plates, as described previously. Calcium imaging was performed 5–6 days after differentiation in myotubes loaded with 5μM Fura-2-AM or 2μM Fluo-4 (Molecular Probes) in imaging buffer (125 mM NaCl, 5 mM KCl, 2 mM CaCl2, 1.2 mM MgSO4, 6 mM glucose, and 25 mM HEPES-Tris, pH 7.4). Cell membrane depolarization was performed by 5s of perfusion with 5–7 volumes of imaging buffer containing increasing concentrations of KCl. To preserve osmolarity of the depolarization buffer, the increased K concentration was compensated with an equivalent reduction in total NaCl concentration. Sarcoplasmic reticulum Ca^2+ content of Fura-2-AM-loaded cultured myotubes was estimated from the peak fluorescent amplitude of the Ca^2+ transient induced by 40 mM caffeine stimulation in the presence of 1μM thapsigargin (Tg) and in the absence of extracellular Ca^2+ [34, 35]. Extracellular Ca^2+ entry at rest was estimated from the rate of dye quench by Mn^2+ entry in myotubes loaded with 5μM Fura-2-AM in the presence and in the absence of 10μM KB-R7943 (glycerol, 2-(2-(4-(4-nitrobenzyloxy) phenyl)ethyl)-isothiourea methane sulfonate), as described previously. Cells were then imaged at 360 nm (5 nm) with an intensified 10-bit digital CCD camera (XR-Mega-10, Stanford Photonics, Stanford, CA, USA) using aDG4 multiwavelength light source. Fura-2 images were acquired with a 40 objective (Olympus, UApo/340), and fluorescent emission at 510 nm was then captured from regions of interest within each myotube at 33 frames/s using Piper-controlled acquisition software (Stanford Photonics) and is expressed as the ratio of signal collected at alternating 340 nm/380 nm excitation wavelengths. […] Fluo-4 fluorescent images were acquired using a 60 objective, and emission at 510 nm was then collected from regions of interest from individual cells excited at 490 nm and is expressed as arbitrary fluorescent units.
The macroscopic Ca^2+ current was determined using the same equipment and protocols previously described (PMID: 29212769). […]

[5] = system: DHPRβ1a-null myotubes expressing β1a constructs; assay: Depolarization (KCl)-induced Ca2+ release in Fura-2-loaded myotubes; format: cell-based, mouse; conditions: Fura-2-AM-loaded myotubes expressing the construct; sigmoidal dose–response fit
Protocol: All animal procedures were carried out in accordance with the guidelines of Harvard Medical Area Standing Committee on Animals under experimental protocol number 2589, approved on 01 Sept 2014. Primary myoblasts from DHPRβ1a-null mouse skeletal muscles were isolated from the hindlimb of neonatal mice, as described elsewhere. Stably transduced cell lines were then obtained by infection of primary β-null myoblasts with virion particles carrying the β1a genes at a multiplicity of infection (MOI) of 0.5 and then selected with […] Puromycin for 2 weeks, as described previously. Cells expressing mouse Wtβ1a or β1a-loop chimera subunit were then grown and differentiated in 96-well plates, as described previously. […] Fura-2 images were acquired with a 40 objective (Olympus, UApo/340), and fluorescent emission at 510 nm was then captured from regions of interest within each myotube at 33 frames/s using Piper-controlled acquisition software (Stanford Photonics) and is expressed as the ratio of signal collected at alternating 340 nm/380 nm excitation wavelengths. […] Fluo-4 fluorescent images were acquired using a 60 objective, and emission at 510 nm was then collected from regions of interest from individual cells excited at 490 nm and is expressed as arbitrary fluorescent units.

| Kd [1] | Kd [2] | Substance | further results |
| --- | --- | --- | --- |
| 5.4 ± 0.9 µM | 3.8 ± 0.2 µM | DEPEIPVSPRPRPLAEL [α1s C binding peptide 2 (sP2)] |  |
| 4.6 ± 0.3 µM | 3.6 ± 0.3 µM | EEPEMPVGPRPRPLSEL [α1c C binding peptide 2 (cP2)] |  |
| 3.6 ± 0.2 µM | 2.6 ± 0.4 µM | KDPYPSADFPGDD [α1s C binding peptide 1 (sP1)] |  |
| 15 ± 2 µM | 17 ± 1 µM | KDPYPSADFPGED [sP1 D⟶E mutant] |  |
| 22 ± 2 µM | 19 ± 2 µM | KDPYPSADFTGDD [sP1 P⟶T mutant] |  |
| 4.6 ± 0.4 µM | 4.6 ± 0.3 µM | KDPYPSADTPGDD [sP1 F⟶T mutant] |  |
| 4.5 ± 0.3 µM | 2.3 ± 0.2 µM | KDPYPSPDFPGDD [sP1 A⟶P mutant] |  |
| 14 ± 2 µM | 19 ± 4 µM | KSPYPNPETTGEE [α1c C binding peptide 1 (cP1)] |  |
|  | 3.6 ± 0.6 µM | LKVDEFESNVNEVKDPYPSADFPGDDEEDEPEIPVSPRPRPLAELQ [α1s II–III loop C region (α1s C)] |  |
|  |  | β1a: full-length mouse DHPR β1a subunit; recombinant or expressed in β-null myotubes | Kd [3]: 4.9 ± 0.6 µM; V1/2 ([4]; potential at which G = 1/2 Gmax, n = 22 / 21): 14.7 ± 0.88 mV; Vr ([4]; reversal potential, n = 22 / 21): 84.8 ± 0.35 mV; k ([4]; slope parameter, n = 22 / 21): 6.0 ± 0.17 mV; Gmax ([4]; β-null myotubes expressing the construct, external 10 mM CaCl2, n = 22 (Wt-β1a), n = 21 (β1a-RT loop)): 453 ± 33.0 pS/pF; EC50 [5]: 6680 ± 450 µM |
|  |  | β2a: mouse DHPR β2a (cardiac isoform) subunit, recombinant | Kd for binding to α1s C [3]: no measurable binding |
